According to PubChem BioAssay (NCI):
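Results reflect a 48-hour exposure of cells in 96-well plates to compound at five concentrations. TGI is the concentration that stops growth completely.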

Columns and labels:
Assay in all cases: NCI anticancer screen, dose series, 48 h
[1] = system: MCF7 breast
[2] = system: SF-268 CNS
[3] = system: SK-MEL-2 melanoma
[4] = system: MDA-N
[5] = system: HOP-92 NSCLC
[6] = system: HL-60(TB) leukemia
[7] = system: SNB-75 CNS
[8] = system: HCT-116 colon
[9] = system: PC-3 prostate
[10] = system: OVCAR-3 ovarian
[11] = system: SR leukemia
[12] = system: KM12 colon
[13] = system: SK-MEL-5 melanoma
[14] = system: SK-OV-3 ovarian
[15] = system: SK-MEL-28 melanoma
[16] = system: RPMI-8226 leukemia
[17] = system: OVCAR-5 ovarian
[18] = system: MOLT-4 leukemia
[19] = system: SN12C renal
[20] = system: UACC-62 melanoma
[21] = system: SF-539 CNS
[22] = system: TK-10 renal
[23] = system: T-47D breast
[24] = system: COLO 205 colon
[25] = system: CAKI-1 renal
[26] = system: MDA-MB-435
[27] = system: HOP-62 NSCLC
[28] = system: HT29 colon
[29] = system: HCC-2998 colon
[30] = system: 786-0 renal
[31] = system: M14 melanoma
[32] = system: NCI/ADR-RES ovarian
[33] = system: UACC-257 melanoma
[34] = system: NCI-H23 lung
[35] = system: SF-295 CNS
[36] = system: SNB-19 CNS
[37] = system: HS 578T breast
[38] = system: A549 NSCLC
[39] = system: UO-31 renal
[40] = system: HCT-15 colon
[41] = system: A498 renal
[42] = system: OVCAR-4 ovarian
[43] = system: U251 CNS
[44] = system: EKVX NSCLC
[45] = system: SW-620 colon
[46] = system: K-562 leukemia
[47] = system: RXF 393 renal
[48] = system: ACHN renal
[49] = system: MDA-MB-231 breast
[50] = system: MALME-3M melanoma
[51] = system: NCI-H460 lung
[52] = system: DU-145 prostate
[53] = system: LOX IMVI melanoma
[54] = system: CCRF-CEM leukemia
[55] = system: NCI-H226 lung
[56] = system: NCI-H522 lung
[57] = system: OVCAR-8 ovarian
[58] = system: IGROV1 ovarian

O=C(C=P(c1ccccc1)(c1ccccc1)c1ccccc1)c1ccc(-c2cccc([N+](=O)[O-])c2)cc1
TGI [1]: 10.6 µM | TGI [2]: > 100 µM | TGI [3]: 3.78 µM | TGI [4]: 9.09 µM | TGI [5]: 6.92 µM | TGI [6]: 5.08 µM | TGI [7]: 6.86 µM | TGI [8]: 6.24 µM | TGI [9]: 18.6 µM | TGI [10]: 9.69 µM | TGI [11]: 8.09 µM | TGI [12]: 20 µM | TGI [13]: 5.91 µM | TGI [14]: 18.6 µM | TGI [15]: 18.2 µM | TGI [16]: 3.98 µM | TGI [17]: 14.9 µM | TGI [18]: 5.55 µM | TGI [19]: 12 µM | TGI [20]: 15.9 µM | TGI [21]: 15.3 µM | TGI [22]: 55.9 µM | TGI [23]: 27.1 µM | TGI [24]: 3.31 µM | TGI [25]: 9.38 µM | TGI [26]: 5.4 µM | TGI [27]: 27.6 µM | TGI [28]: 3.13 µM | TGI [29]: 4.75 µM | TGI [30]: 20.8 µM | TGI [31]: 4.64 µM | TGI [32]: 25.1 µM | TGI [33]: 15.8 µM | TGI [34]: 21.2 µM | TGI [35]: > 100 µM | TGI [36]: > 100 µM | TGI [37]: 22.4 µM | TGI [38]: 12.7 µM | TGI [39]: 4.8 µM | TGI [40]: 12.7 µM | TGI [41]: 9.11 µM | TGI [42]: 9.52 µM | TGI [43]: 13.2 µM | TGI [44]: 11.7 µM | TGI [45]: 14.5 µM | TGI [46]: 7.98 µM | TGI [47]: 9.34 µM | TGI [48]: 7.87 µM | TGI [49]: 8 µM | TGI [50]: 9.31 µM | TGI [51]: 4.27 µM | TGI [52]: 35.1 µM | TGI [53]: 4.15 µM | TGI [54]: 7.25 µM | TGI [55]: 19.9 µM

COC(=O)[C@]12CC[C@H]3CN(C(=O)OCc4ccccc4)[C@H]([C@H]31)[C@H](c1ccco1)N2
TGI [1]: > 100 µM | TGI [2]: > 100 µM | TGI [3]: > 100 µM | TGI [4]: > 100 µM | TGI [5]: > 100 µM | TGI [6]: 84.4 µM | TGI [8]: > 100 µM | TGI [9]: > 100 µM | TGI [10]: > 100 µM | TGI [11]: > 100 µM | TGI [12]: > 100 µM | TGI [13]: 37.3 µM | TGI [14]: > 100 µM | TGI [15]: > 100 µM | TGI [56]: 39.1 µM | TGI [16]: > 100 µM | TGI [17]: > 100 µM | TGI [18]: 64.5 µM | TGI [19]: > 100 µM | TGI [20]: > 100 µM | TGI [21]: > 100 µM | TGI [22]: > 100 µM | TGI [23]: > 100 µM | TGI [24]: 40.9 µM | TGI [25]: > 100 µM | TGI [26]: 61.8 µM | TGI [27]: > 100 µM | TGI [28]: > 100 µM | TGI [29]: > 100 µM | TGI [30]: > 100 µM | TGI [31]: > 100 µM | TGI [32]: 51.7 µM | TGI [33]: 81.4 µM | TGI [34]: 42.2 µM | TGI [35]: > 100 µM | TGI [57]: > 100 µM | TGI [36]: > 100 µM | TGI [37]: > 100 µM | TGI [38]: > 100 µM | TGI [39]: > 100 µM | TGI [58]: > 100 µM | TGI [40]: 84.5 µM | TGI [41]: 36.3 µM | TGI [42]: 31.2 µM | TGI [43]: > 100 µM | TGI [44]: > 100 µM | TGI [45]: > 100 µM | TGI [46]: > 100 µM | TGI [47]: > 100 µM | TGI [48]: > 100 µM | TGI [49]: > 100 µM | TGI [50]: 80.2 µM | TGI [51]: > 100 µM | TGI [52]: > 100 µM | TGI [53]: > 100 µM | TGI [54]: > 100 µM | TGI [55]: > 100 µM
